Data from patent US20200331904A1, “3-AMINO-[1,2,4]-TRIAZOLE DERIVATIVES AND THEIR USE FOR CONTROLLING UNDESIRED PLANT GROWTH” (Bayer CropScience Aktiengesellschaft, priority 2017, published 2020).

Key:
Type in all cases: in vivo
Matricaria inodora = test: Pre-emergence herbicidal efficacy, MATIN
Source text: (§1) C.1 Pre-Emergence Herbicidal Action and Crop Plant Compatibility
(§2) Seeds of monocotyledonous and dicotyledonous weed plants and crop plants are placed in plastic or organic planting pots and covered with soil. The compounds of the invention, formulated in the form of wettable powders (WP) or as emulsion concentrates (EC), are then applied onto the surface of the covering soil as aqueous suspension or emulsion with addition of 0.5% additive at a water application rate of […] (converted). After the treatment, the pots are placed in a greenhouse and kept under good growth conditions for the trial plants. After about 3 weeks, the effect of the preparations is scored visually in comparison with untreated controls as percentages. For example, 100% activity=the plants have died, 0% activity=like control plants.
(§3) ABUTH: Abutilon theophrasti ALOMY: Alopecurus myosuroides AMARE: Amaranthus retroflexus AVEFA: Avena fatua CYPES: Cyperus esculentus ECHCG: Echinochloa crus-galli LOLMU: Lolium multiflorum MATIN: Matricaria inodora PHBPU: Ipomoea purpurea POLCO: Polygonum convolvulus SETVI: Setaria viridis STEME: Stellaria media VERPE: Veronica persica VTOTR: Viola tricolor

Stellaria media = test: Pre-emergence herbicidal efficacy, STEME
Source text: as §1, §2, §3

Viola tricolor = test: Pre-emergence herbicidal efficacy, VIOTR
Source text: as §1, §2, §3

Amaranthus retroflexus = test: Pre-emergence herbicidal efficacy, AMARE; conditions: Table B2, application rate 320 g/ha, scored visually after about 3 weeks vs untreated controls
Source text: as §1, §2, §3

Veronica persica = test: Pre-emergence herbicidal efficacy, VERPE; conditions: Table B2, application rate 320 g/ha, scored visually after about 3 weeks vs untreated controls
Source text: as §1, §2, §3

[1] = application rate 320 g/ha, scored visually after about 3 weeks
[2] = Table B2, application rate 320 g/ha, scored visually after about 3 weeks vs untreated controls

| Structure (SMILES) | Herbicidal efficacy against MATIN (Matricaria inodora; [1]) | Herbicidal efficacy against STEME (Stellaria media; [1]) | Herbicidal efficacy against VIOTR (Viola tricolor; [1]) | Herbicidal efficacy against AMARE (Amaranthus retroflexus) | Herbicidal efficacy against MATIN (Matricaria inodora; [2]) | Herbicidal efficacy against STEME (Stellaria media; [2]) | Herbicidal efficacy against VIOTR (Viola tricolor; [2]) | Herbicidal efficacy against VERPE (Veronica persica) |
| --- | --- | --- | --- | --- | --- | --- | --- | --- |
| c1ccc2c(c1)OCCC2Nc1nc2n(n1)CCCS2 (racemic) [Example I-204] | 100% | 100% | – | – | – | – | – | – |
| c1ccc2c(c1)CCCC2Nc1nc2n(n1)CCCS2 (racemic) [Example I-209] | 100% | 100% | 100% | – | – | – | – | – |
| O=C(C1CC1)N1CCn2nc(NC3CCCc4ccccc43)nc2C1 (stereo not drawn) [Example I-060] | 100% | 100% | 90% | – | – | – | – | – |
| CC(=O)N1CCn2nc(NC3CCCc4ccccc43)nc2C1 (stereo not drawn) [Example I-061] | 100% | 100% | 100% | – | – | – | – | – |
| O=S(=O)(Cc1ccccc1)N1CCn2nc(NC3CCOc4ccccc43)nc2C1 (stereo not drawn) [Example I-076] | – | 90% | 100% | – | – | – | – | – |
| O=S(=O)(Cc1ccccc1)N1CCn2nc(NC3CCCc4ccccc43)nc2C1 (stereo not drawn) [Example I-078] | 70% | 90% | 100% | – | – | – | – | – |
| CC(C)S(=O)(=O)N1CCn2nc(NC3CCCc4ccccc43)nc2C1 (stereo not drawn) [Example I-094] | 100% | 100% | 100% | – | – | – | – | – |
| CS(=O)(=O)N1CCn2nc(NC3CCCc4ccccc43)nc2C1 (stereo not drawn) [Example I-097] | 100% | 100% | 100% | – | – | – | – | – |
| Cc1ccc2c(c1)[C@H](Nc1nc3n(n1)CCNC3)CCC2 [Example I-157] | 80% | 100% | 100% | – | – | – | – | – |
| CC(=O)N1CCn2nc(N[C@@H]3CCc4ccccc43)nc2C1 [Example I-158] | 90% | 100% | 100% | – | – | – | – | – |
| O=C(C1CC1)N1CCn2nc(N[C@@H]3CCc4ccccc43)nc2C1 [Example I-160] | 90% | 100% | 100% | – | – | – | – | – |
| O=C(c1ccccc1)N1CCn2nc(N[C@@H]3CCCc4ccccc43)nc2C1 [Example I-164] | 90% | 100% | 100% | – | – | – | – | – |
| Cc1ccc2c(c1)C(Nc1nc3n(n1)CCN(C(=O)c1ccccc1)C3)C(C)C2 (stereo not drawn) [Example I-166] | 90% | 100% | 100% | – | – | – | – | – |
| Cc1ccc2c(c1)C(Nc1nc3n(n1)CCN(C(=O)c1cccc(C(F)(F)F)c1)C3)C(C)C2 (stereo not drawn) [Example I-168] | 80% | 90% | 100% | – | – | – | – | – |
| Cc1ccc2c(c1)C(Nc1nc3n(n1)CCN(C(=O)c1ccccc1Cl)C3)C(C)C2 (stereo not drawn) [Example I-169] | 90% | 100% | 100% | – | – | – | – | – |
| Cc1ccc2c(c1)C(Nc1nc3n(n1)CCN(C(=O)C1CCCCC1)C3)C(C)C2 (stereo not drawn) [Example I-172] | 90% | 100% | 100% | – | – | – | – | – |
| Cc1ccc2c(c1)[C@H](Nc1nc3n(n1)CCN(C(=O)c1ccccc1)C3)CC2 [Example I-174] | 90% | 100% | 100% | – | – | – | – | – |
| Cc1ccc2c(c1)[C@H](Nc1nc3n(n1)CCN(C(=O)c1cccc(C(F)(F)F)c1)C3)CC2 [Example I-176] | 80% | 80% | 90% | – | – | – | – | – |
| Cc1ccc2c(c1)[C@H](Nc1nc3n(n1)CCN(C(=O)c1ccccc1Cl)C3)CC2 [Example I-177] | 90% | 100% | 100% | – | – | – | – | – |
| Cc1ccc2c(c1)[C@H](Nc1nc3n(n1)CCN(C(=O)c1cccc(Cl)c1)C3)CC2 [Example I-178] | 70% | 100% | 100% | – | – | – | – | – |
| Cc1ccc2c(c1)[C@H](Nc1nc3n(n1)CCN(C(=O)c1ccc(Cl)cc1)C3)CC2 [Example I-179] | 90% | 100% | 70% | – | – | – | – | – |
| Cc1ccc2c(c1)[C@H](Nc1nc3n(n1)CCN(C(=O)c1ccccc1)C3)CCC2 [Example I-181] | 100% | 100% | 100% | – | – | – | – | – |

| Structure (SMILES) | Herbicidal efficacy against MATIN (Matricaria inodora; [1]) | Herbicidal efficacy against STEME (Stellaria media; [1]) | Herbicidal efficacy against VIOTR (Viola tricolor; [1]) | Herbicidal efficacy against AMARE (Amaranthus retroflexus) | Herbicidal efficacy against MATIN (Matricaria inodora; [2]) | Herbicidal efficacy against STEME (Stellaria media; [2]) | Herbicidal efficacy against VIOTR (Viola tricolor; [2]) | Herbicidal efficacy against VERPE (Veronica persica) |
| --- | --- | --- | --- | --- | --- | --- | --- | --- |
| Cc1ccc2c(c1)[C@H](Nc1nc3n(n1)CCN(C(=O)c1cccc(C(F)(F)F)c1)C3)CCC2 [Example I-183] | 90% | 100% | 90% | – | – | – | – | – |
| Cc1ccc2c(c1)[C@H](Nc1nc3n(n1)CCN(C(=O)c1ccccc1Cl)C3)CCC2 [Example I-184] | 90% | 100% | 100% | – | – | – | – | – |
| Cc1ccc2c(c1)[C@H](Nc1nc3n(n1)CCN(C(=O)c1cccc(Cl)c1)C3)CCC2 [Example I-185] | 90% | 100% | 100% | – | – | – | – | – |
| Cc1ccc2c(c1)[C@H](Nc1nc3n(n1)CCN(C(=O)c1ccc(Cl)cc1)C3)CCC2 [Example I-186] | 80% | 100% | 100% | – | – | – | – | – |
| c1ccc2c(c1)OCCC2Nc1nc2n(n1)CCCCS2 (stereo not drawn) [Example I-211] | 100% | 100% | 100% | – | – | – | – | – |
| c1ccc2c(c1)CCC2Nc1nc2n(n1)CCCCS2 (stereo not drawn) [Example I-212] | 100% | 100% | 100% | – | – | – | – | – |
| c1ccc2c(c1)CCCC2Nc1nc2n(n1)CCCCS2 (stereo not drawn) [Example I-216] | 100% | 100% | 100% | – | – | – | – | – |
| O=C1CCn2nc(NC3CCc4ccccc43)nc2N1CC1CCCCC1 (stereo not drawn) [Example I-223] | 90% | 100% | 90% | – | – | – | – | – |
| O=C1CCn2nc(NC3CCCc4ccccc43)nc2N1CC1CC1 (stereo not drawn) [Example I-228] | 100% | 100% | 100% | – | – | – | – | – |
| O=S1(=O)CCCCn2nc(NC3CCc4ccccc43)nc21 (stereo not drawn) [Example I-236] | 100% | 100% | 100% | – | – | – | – | – |
| O=S1(=O)CCCn2nc(NC3CCOc4ccccc43)nc21 (stereo not drawn) [Example I-242] | 100% | 80% | – | – | – | – | – | – |
| O=S1(=O)CCCn2nc(NC3CCCc4ccccc43)nc21 (stereo not drawn) [Example I-252] | 100% | 100% | – | – | – | – | – | – |
| O=C1CCn2nc(NC3CCOc4ccccc43)nc2N1CC1CCCCC1 (stereo not drawn) [Example I-255] | – | 90% | 100% | – | – | – | – | – |
| CC(C)N1C(=O)CCn2nc(NC3CCCc4ccccc43)nc21 (stereo not drawn) [Example I-262] | – | 100% | 100% | – | – | – | – | – |
| O=C1CCn2nc(NC3CCCc4ccccc43)nc2N1CC1CCCCC1 (stereo not drawn) [Example I-271] | 90% | 90% | 90% | – | – | – | – | – |
| CS(=O)(=O)N1CCCn2nc(NC3CCCc4ccccc43)nc21 (stereo not drawn) [Example I-305] | 100% | 100% | 100% | – | – | – | – | – |
| Cc1ccc2c(c1)C(Nc1nc3n(n1)CCC(=O)N3Cc1ccccc1)CCC2 (stereo not drawn) [Example I-315] | – | – | – | 80% | 80% | 90% | 100% | 100% |
| CC(=O)N1CCCn2nc(NC3CCc4ccc(C)cc43)nc21 (stereo not drawn) [Example I-320] | – | – | – | 90% | 100% | 100% | 100% | 100% |
| Cc1ccc2c(c1)C(Nc1nc3n(n1)CCCN3S(=O)(=O)C(C)C)CCC2 (stereo not drawn) [Example I-325] | – | 100% | – | – | – | – | – | – |
| Cc1ccc2c(c1)C(Nc1nc3n(n1)CCCN3S(=O)(=O)C1CC1)CC2 (stereo not drawn) [Example I-336] | – | – | – | 100% | 100% | 100% | 100% | 100% |
| CCN1CCn2nc(N[C@@H]3CCCc4ccc(C)cc43)nc2C1 [Example I-343] | – | – | – | 100% | 100% | 100% | 100% | 100% |
